The source of these data is the supplement of paper PMC10307832.

Holding throughout (test): relative viability (nuclei count vs DMSO), 5 days (fraction); higher = more cells survive
Compound in the experiment “GSK-J4 + Crizotinib”: CCOC(=O)CCNc1cc(N2CCc3ccccc3CC2)nc(-c2ccccn2)n1 [GSK-J4] + C[C@@H](Oc1cc(-c2cnn(C3CCNCC3)c2)cnc1N)c1c(Cl)ccc(F)c1Cl [Crizotinib] (partner 1 µM)
In short, it runs like this: (§1)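 Values are medians from duplicate plates. Each reflects relative viability, defined as the nuclei count of treated wells over that of vehicle wells. Lung cancer cell lines in 1536-well plates were pin-tool dosed one day after seeding with one drug alone or with a fixed anchor-drug dose plus five library-drug doses (not always all listed) in √10 steps, then fixed, stained and imaged at 4× after 5 days.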

Compound in the experiment “GSK-J4 + Luminespib”: CCOC(=O)CCNc1cc(N2CCc3ccccc3CC2)nc(-c2ccccn2)n1 [GSK-J4] + CCNC(=O)c1noc(-c2cc(C(C)C)c(O)cc2O)c1-c1ccc(CN2CCOCC2)cc1 [Luminespib] (partner 0.01 µM)
In short, it runs like this:
as §1

Compound in the experiment “GSK-J4 + Pemetrexed”: CCOC(=O)CCNc1cc(N2CCc3ccccc3CC2)nc(-c2ccccn2)n1 [GSK-J4] + Nc1nc2[nH]cc(CCc3ccc(C(=O)N[C@@H](CCC(=O)O)C(=O)O)cc3)c2c(=O)[nH]1 [Pemetrexed] (partner 0.2 µM)
In short, it runs like this: as §1

Compound in the experiment “AZ3146 + OSI-027”: CN1CCC(CC1)OC2=CC(=C(C=C2)NC3=NC=C4C(=N3)N(C(=O)N4C)C5CCCC5)OC [AZ3146] + COc1cccc2cc(-c3nc([C@H]4CC[C@H](C(=O)O)CC4)n4ncnc(N)c34)[nH]c12 [OSI-027] (partner 0.5 µM)
The procedure, abridged:
as §1

In the case of NCI-H2170, the relative viability with GSK-J4 + Crizotinib (first compound 0.5 µM) is 1.09; with GSK-J4 + Crizotinib (first compound 1.581 µM), 1.14; in the experiment with GSK-J4 + Crizotinib (first compound 5 µM), 1.19; with GSK-J4 + Crizotinib (first compound 15.81 µM), 1.09; in the experiment with GSK-J4 + Crizotinib (first compound 50 µM) it was 1.11; in the experiment with GSK-J4 + Luminespib (first compound 0.5 µM), 0.576. Further, the relative viability with GSK-J4 + Luminespib (first compound 1.581 µM) was found to be 0.668; in the experiment with GSK-J4 + Luminespib (first compound 5 µM), 0.81; with GSK-J4 + Luminespib (first compound 15.81 µM), 0.362; in the experiment with GSK-J4 + Luminespib (first compound 50 µM), 0.609; in the experiment with GSK-J4 + Pemetrexed (first compound 0.5 µM) it was 0.237; with GSK-J4 + Pemetrexed (first compound 1.581 µM), 0.292. The relative viability in the experiment with GSK-J4 + Pemetrexed (first compound 5 µM) stood at 0.243; with GSK-J4 + Pemetrexed (first compound 15.81 µM) it was 0.252; in the experiment with GSK-J4 + Pemetrexed (first compound 50 µM), 0.273; in the experiment with AZ3146 + OSI-027 (first compound 0.08 µM), 0.676; with AZ3146 + OSI-027 (first compound 0.253 µM) it was 0.66; in the experiment with AZ3146 + OSI-027 (first compound 0.8 µM), 0.66. Also, the relative viability with AZ3146 + OSI-027 (first compound 2.53 µM) and in the experiment with AZ3146 + OSI-027 (first compound 8 µM) was 0.713 in each case.

NCI-H2228: the relative viability with GSK-J4 + Crizotinib (first compound 0.5 µM) stood at 0.609; with GSK-J4 + Crizotinib (first compound 1.581 µM), 0.345; with GSK-J4 + Crizotinib (first compound 5 µM), 0.497; with GSK-J4 + Crizotinib (first compound 15.81 µM), 0.535; with GSK-J4 + Crizotinib (first compound 50 µM) it was 0.423; with GSK-J4 + Luminespib (first compound 0.5 µM) it was 0.189. Further, the relative viability is 0.124 with GSK-J4 + Luminespib (first compound 1.581 µM); 0.152 in the experiment with GSK-J4 + Luminespib (first compound 5 µM); 0.143 in the experiment with GSK-J4 + Luminespib (first compound 15.81 µM); 0.124 with GSK-J4 + Luminespib (first compound 50 µM); 0.335 with GSK-J4 + Pemetrexed (first compound 0.5 µM); 0.328 with GSK-J4 + Pemetrexed (first compound 1.581 µM). Besides, the relative viability was 0.342 with GSK-J4 + Pemetrexed (first compound 5 µM); 0.36 in the experiment with GSK-J4 + Pemetrexed (first compound 15.81 µM); 0.364 with GSK-J4 + Pemetrexed (first compound 50 µM); 0.484 in the experiment with AZ3146 + OSI-027 (first compound 0.08 µM); 0.579 with AZ3146 + OSI-027 (first compound 0.253 µM); 0.498 with AZ3146 + OSI-027 (first compound 0.8 µM). Besides, the relative viability is 0.615 in the experiment with AZ3146 + OSI-027 (first compound 2.53 µM) and 0.429 with AZ3146 + OSI-027 (first compound 8 µM).

Regarding NCI-H2347, the relative viability came to 0.644 with GSK-J4 + Crizotinib (first compound 0.5 µM); 0.707 with GSK-J4 + Crizotinib (first compound 1.581 µM); 0.651 with GSK-J4 + Crizotinib (first compound 5 µM); 0.633 with GSK-J4 + Crizotinib (first compound 15.81 µM); 0.554 with GSK-J4 + Crizotinib (first compound 50 µM); 0.529 with GSK-J4 + Luminespib (first compound 0.5 µM). For the same cell line, the relative viability with GSK-J4 + Luminespib (first compound 1.581 µM) worked out at 0.405; in the experiment with GSK-J4 + Luminespib (first compound 5 µM) it was 0.341; with GSK-J4 + Luminespib (first compound 50 µM), 0.435; with GSK-J4 + Pemetrexed (first compound 0.5 µM) it was 0.417; with GSK-J4 + Pemetrexed (first compound 1.581 µM), 0.411; in the experiment with GSK-J4 + Pemetrexed (first compound 5 µM), 0.378. The relative viability with GSK-J4 + Pemetrexed (first compound 15.81 µM) was 0.394; with GSK-J4 + Pemetrexed (first compound 50 µM) it was 0.442; in the experiment with AZ3146 + OSI-027 (first compound 0.08 µM) it was 0.245; with AZ3146 + OSI-027 (first compound 0.253 µM) it was 0.452; with AZ3146 + OSI-027 (first compound 0.8 µM) it was 0.48; with AZ3146 + OSI-027 (first compound 2.53 µM), 0.293. In the experiment with AZ3146 + OSI-027 (first compound 8 µM), the relative viability is 0.466.

With NCI-H2405, the relative viability with GSK-J4 + Crizotinib (first compound 0.5 µM) was found to be 0.847; with GSK-J4 + Crizotinib (first compound 1.581 µM), 0.794; in the experiment with GSK-J4 + Crizotinib (first compound 15.81 µM) it was 0.751; in the experiment with GSK-J4 + Crizotinib (first compound 50 µM) it was 0.664; in the experiment with GSK-J4 + Luminespib (first compound 0.5 µM) it was 0.774; with GSK-J4 + Luminespib (first compound 1.581 µM) it was 0.674. Also, the relative viability in the experiment with GSK-J4 + Luminespib (first compound 15.81 µM) worked out at 0.511; in the experiment with GSK-J4 + Luminespib (first compound 50 µM), 0.653; with GSK-J4 + Pemetrexed (first compound 0.5 µM), 1.01; with GSK-J4 + Pemetrexed (first compound 1.581 µM) it was 1; in the experiment with GSK-J4 + Pemetrexed (first compound 15.81 µM), 1; with GSK-J4 + Pemetrexed (first compound 50 µM) it was 1.02. Further, the relative viability with AZ3146 + OSI-027 (first compound 0.08 µM) amounted to 0.652; with AZ3146 + OSI-027 (first compound 0.253 µM) it was 0.62; with AZ3146 + OSI-027 (first compound 0.8 µM), 0.582; with AZ3146 + OSI-027 (first compound 2.53 µM) it was 0.696; in the experiment with AZ3146 + OSI-027 (first compound 8 µM), 0.641.

For NCI-H3122, the relative viability stood at 0.287 with GSK-J4 + Crizotinib (first compound 0.5 µM); 0.275 with GSK-J4 + Crizotinib (first compound 1.581 µM); 0.27 with GSK-J4 + Crizotinib (first compound 5 µM); 0.243 with GSK-J4 + Crizotinib (first compound 15.81 µM); 0.283 in the experiment with GSK-J4 + Crizotinib (first compound 50 µM); 0.0789 in the experiment with GSK-J4 + Luminespib (first compound 0.5 µM). Further, the relative viability worked out at 0.067 with GSK-J4 + Luminespib (first compound 1.581 µM); 0.119 with GSK-J4 + Luminespib (first compound 5 µM); 0.0946 in the experiment with GSK-J4 + Luminespib (first compound 15.81 µM); 0.121 in the experiment with GSK-J4 + Luminespib (first compound 50 µM); 0.205 with GSK-J4 + Pemetrexed (first compound 0.5 µM); 0.201 with GSK-J4 + Pemetrexed (first compound 1.581 µM). The relative viability with GSK-J4 + Pemetrexed (first compound 5 µM) came to 0.201; with GSK-J4 + Pemetrexed (first compound 15.81 µM), 0.206; with GSK-J4 + Pemetrexed (first compound 50 µM), 0.19; with AZ3146 + OSI-027 (first compound 0.08 µM), 1.07; in the experiment with AZ3146 + OSI-027 (first compound 0.253 µM), 1.03; in the experiment with AZ3146 + OSI-027 (first compound 0.8 µM) it was 0.776. The relative viability with AZ3146 + OSI-027 (first compound 2.53 µM) stood at 0.92; with AZ3146 + OSI-027 (first compound 8 µM), 0.729.

As to PC-3 [JPC-3], the relative viability with GSK-J4 + Crizotinib (first compound 0.5 µM) was 0.912; with GSK-J4 + Crizotinib (first compound 1.581 µM), 0.882; with GSK-J4 + Crizotinib (first compound 5 µM) it was 0.952; with GSK-J4 + Crizotinib (first compound 15.81 µM) it was 0.926; in the experiment with GSK-J4 + Crizotinib (first compound 50 µM) it was 0.814; in the experiment with GSK-J4 + Luminespib (first compound 0.5 µM), 0.698. The relative viability with GSK-J4 + Luminespib (first compound 1.581 µM) amounted to 0.552; with GSK-J4 + Luminespib (first compound 5 µM) it was 0.735; in the experiment with GSK-J4 + Luminespib (first compound 15.81 µM) it was 0.584; with GSK-J4 + Luminespib (first compound 50 µM), 0.439; with GSK-J4 + Pemetrexed (first compound 0.5 µM) it was 1.14; in the experiment with GSK-J4 + Pemetrexed (first compound 1.581 µM), 0.848. The relative viability turned out to be 1.03 in the experiment with GSK-J4 + Pemetrexed (first compound 5 µM); 0.938 in the experiment with GSK-J4 + Pemetrexed (first compound 15.81 µM); 0.944 with GSK-J4 + Pemetrexed (first compound 50 µM); 0.624 in the experiment with AZ3146 + OSI-027 (first compound 0.08 µM); 0.792 with AZ3146 + OSI-027 (first compound 0.253 µM); 0.789 with AZ3146 + OSI-027 (first compound 0.8 µM). The relative viability was found to be 0.77 with AZ3146 + OSI-027 (first compound 2.53 µM) and 0.776 with AZ3146 + OSI-027 (first compound 8 µM).
